Assay [1] concerns the target T1, Muscarinic acetylcholine receptor M2 (Homo sapiens, UniProt P08172).
T1 sequence (P08172 whole entry): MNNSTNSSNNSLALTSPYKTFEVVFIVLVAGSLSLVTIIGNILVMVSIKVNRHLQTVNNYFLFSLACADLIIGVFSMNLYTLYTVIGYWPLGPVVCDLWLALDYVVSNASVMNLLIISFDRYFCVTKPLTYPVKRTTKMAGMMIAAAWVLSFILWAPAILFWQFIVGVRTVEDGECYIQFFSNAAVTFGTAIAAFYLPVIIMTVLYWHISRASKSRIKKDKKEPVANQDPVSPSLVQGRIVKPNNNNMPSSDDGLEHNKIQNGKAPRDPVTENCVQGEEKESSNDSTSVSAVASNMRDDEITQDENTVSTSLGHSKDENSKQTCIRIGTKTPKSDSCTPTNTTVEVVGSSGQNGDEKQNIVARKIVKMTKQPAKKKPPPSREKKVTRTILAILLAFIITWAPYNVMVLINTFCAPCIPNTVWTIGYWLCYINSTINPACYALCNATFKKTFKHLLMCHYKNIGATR
Nature of the assay: Displacement of [3H]-NMS from human muscarinic M2 receptor expressed in CHO cell membranes assessed as inhibition constant by radioligand competition analysis. Details: species or system Cell membrane. A general note: Loss of bound radioactivity is the signal in a displacement assay; it reports binding, not function.

For assay [2], the target named is T2, Muscarinic acetylcholine receptor M4 (Homo sapiens, UniProt P08173).
T2 sequence (P08173 whole entry): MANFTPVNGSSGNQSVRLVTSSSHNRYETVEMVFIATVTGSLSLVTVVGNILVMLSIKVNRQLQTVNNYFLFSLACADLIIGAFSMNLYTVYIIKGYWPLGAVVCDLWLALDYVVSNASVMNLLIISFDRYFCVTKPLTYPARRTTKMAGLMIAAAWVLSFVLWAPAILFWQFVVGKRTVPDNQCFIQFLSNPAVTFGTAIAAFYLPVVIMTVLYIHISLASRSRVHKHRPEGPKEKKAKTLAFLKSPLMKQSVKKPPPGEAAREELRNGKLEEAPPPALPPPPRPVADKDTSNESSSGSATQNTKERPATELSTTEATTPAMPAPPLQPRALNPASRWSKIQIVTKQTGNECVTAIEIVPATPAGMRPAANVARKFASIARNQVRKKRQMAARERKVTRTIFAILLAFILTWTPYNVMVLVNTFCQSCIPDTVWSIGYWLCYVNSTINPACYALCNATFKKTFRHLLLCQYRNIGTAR
The experiment in a line: Displacement of [3H]-NMS from human muscarinic M4 receptor expressed in CHO cell membranes assessed as inhibition constant by radioligand competition analysis. Set-up: species or system Cell membrane.

Assay [3] concerns the target T3, Muscarinic acetylcholine receptor M1 (Homo sapiens, UniProt P11229).
T3 sequence (P11229 whole entry): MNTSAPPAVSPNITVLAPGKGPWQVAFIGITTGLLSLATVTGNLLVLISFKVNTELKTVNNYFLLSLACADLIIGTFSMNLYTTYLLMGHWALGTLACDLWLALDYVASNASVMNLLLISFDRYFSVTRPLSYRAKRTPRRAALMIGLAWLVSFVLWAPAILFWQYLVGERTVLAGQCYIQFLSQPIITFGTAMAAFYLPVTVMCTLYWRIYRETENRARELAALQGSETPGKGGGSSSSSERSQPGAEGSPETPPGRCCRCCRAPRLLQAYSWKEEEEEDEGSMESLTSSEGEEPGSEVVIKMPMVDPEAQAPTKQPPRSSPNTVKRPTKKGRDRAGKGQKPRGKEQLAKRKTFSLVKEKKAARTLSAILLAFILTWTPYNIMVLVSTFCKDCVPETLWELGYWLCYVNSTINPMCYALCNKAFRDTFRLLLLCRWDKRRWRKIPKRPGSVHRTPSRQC
The experiment in a line: Displacement of [3H]-NMS from human muscarinic M1 receptor expressed in CHO cell membranes assessed as inhibition constant by radioligand competition analysis. Details: species or system Cell membrane.

Assay [4] concerns the target Muscarinic acetylcholine receptor M3 (Homo sapiens, UniProt P20309). The experiment in a line: Displacement of [3H]-NMS from human muscarinic M3 receptor expressed in CHO cell membranes assessed as inhibition constant by radioligand competition analysis. Details: species or system Cell membrane.
Assay [5] addresses T4, Muscarinic acetylcholine receptor M5 (Homo sapiens, UniProt P08912).
T4 sequence (P08912 whole entry): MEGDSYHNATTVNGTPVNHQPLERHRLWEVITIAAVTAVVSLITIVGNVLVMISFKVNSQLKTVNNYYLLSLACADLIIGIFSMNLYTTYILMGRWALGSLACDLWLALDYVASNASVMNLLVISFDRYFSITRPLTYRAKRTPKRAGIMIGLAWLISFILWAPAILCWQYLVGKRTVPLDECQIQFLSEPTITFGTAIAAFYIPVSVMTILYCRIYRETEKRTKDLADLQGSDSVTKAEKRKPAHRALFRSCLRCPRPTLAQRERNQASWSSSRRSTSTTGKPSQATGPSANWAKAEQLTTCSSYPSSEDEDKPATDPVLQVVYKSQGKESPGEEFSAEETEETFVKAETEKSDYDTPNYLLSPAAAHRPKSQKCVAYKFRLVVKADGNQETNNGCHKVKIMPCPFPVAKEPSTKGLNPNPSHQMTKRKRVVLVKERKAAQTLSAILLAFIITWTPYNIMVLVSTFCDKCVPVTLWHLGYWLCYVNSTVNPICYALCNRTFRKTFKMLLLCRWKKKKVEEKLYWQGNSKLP
The experiment in a line: Displacement of [3H]-NMS from human muscarinic M5 receptor expressed in CHO cell membranes assessed as inhibition constant by radioligand competition analysis. Set-up: species or system Cell membrane.

The target in assay [6] is Muscarinic acetylcholine receptors; M2 & M3 (Homo sapiens) (UniProt P20309+P08172). Nature of the assay: Selectivity index, […] for displacement of [3H]NMS from human recombinant muscarinic receptor M3 expressed in CHO cell membranes […] for displacement of [3H]NMS from human recombinant muscarinic receptor M2 expressed in CHO cell membranes.
The target in assay [7] is Muscarinic acetylcholine receptor M2 and M5 (Homo sapiens) (UniProt P08172+P08912). Nature of the assay: Selectivity index, […] for displacement of [3H]NMS from human recombinant muscarinic receptor M5 expressed in CHO cell membranes […] for displacement of [3H]NMS from human recombinant muscarinic receptor M2 expressed in CHO cell membranes.

The values below come from ChEMBL document CHEMBL4813954, “Dibenzodiazepinone-type muscarinic receptor antagonists conjugated to basic peptides: Impact of the linker moiety and unnatural amino acids on M2R selectivity” (Eur J Med Chem, 2021).

Chain of Muscarinic acetylcholine receptor M3 (P20309 whole entry): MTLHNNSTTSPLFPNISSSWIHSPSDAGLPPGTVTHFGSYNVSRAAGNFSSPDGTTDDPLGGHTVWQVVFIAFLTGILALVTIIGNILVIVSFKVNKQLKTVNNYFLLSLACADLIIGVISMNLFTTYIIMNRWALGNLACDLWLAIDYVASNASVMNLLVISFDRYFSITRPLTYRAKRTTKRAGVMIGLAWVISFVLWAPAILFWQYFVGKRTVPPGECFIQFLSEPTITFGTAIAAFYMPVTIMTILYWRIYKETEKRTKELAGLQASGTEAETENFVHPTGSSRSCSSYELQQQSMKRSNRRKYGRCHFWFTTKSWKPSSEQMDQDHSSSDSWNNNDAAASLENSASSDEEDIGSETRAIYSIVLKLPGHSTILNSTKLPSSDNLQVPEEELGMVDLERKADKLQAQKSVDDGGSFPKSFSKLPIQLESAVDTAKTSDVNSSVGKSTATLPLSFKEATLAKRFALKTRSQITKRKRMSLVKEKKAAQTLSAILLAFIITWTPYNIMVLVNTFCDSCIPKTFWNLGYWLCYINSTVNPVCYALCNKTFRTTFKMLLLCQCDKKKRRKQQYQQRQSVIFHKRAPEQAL

As a reminder, the Ki is a dissociation constant, usually derived from enzyme kinetics or from competition with a known ligand. Regarding `NCCN1CCN(CC(=O)NC2CCN(CC(=O)N3c4ccccc4NC(=O)c4ccccc43)CC2)CC1`, the figures for the inhibitory constant (Ki) in assay [1], in assay [2] and in assay [3] were 2450 nM, 25700 nM and 47900 nM, respectively.

Regarding `CCCN[C@@H](CCCNC(=N)N)C(=O)N[C@@H](C)C(=O)N[C@@H](CCCCN)C(=O)NC(C)=O`, the Ki in assay [1] was 6170 nM.

Consider `CC(=O)N[C@@H](CCCCN)C(=O)N[C@@H](CCCNC(=N)N)C(=O)NCCCCC1CCN(CC(=O)N2c3ccccc3NC(=O)c3ccccc32)CC1`, for which the Ki in assay [4] was 6310 nM; in assay [5], 316 nM; in assay [1] it was 1 nM; in assay [2], 63.1 nM; in assay [3], 39.8 nM. Besides, the Selectivity Index in assay [6] worked out at 6500; in assay [7] it was 400.

Take `NCCN1CCN(C(=O)CCCC2CCN(CC(=O)N3c4ccccc4NC(=O)c4ccccc43)CC2)CC1`: the Ki in assay [1] was 155 nM; in assay [2], 1510 nM; in assay [3] it was 724 nM.

In the case of `CC(=O)N[C@@H](Cc1c[nH]c2ccccc12)C(=O)N[C@@H](C)C(=O)N[C@@H](Cc1ccc(O)cc1)C(=O)NCCCCC1CCN(CC(=O)N2c3ccccc3NC(=O)c3ccccc32)CC1`, the Ki is 1260 nM in assay [4], 126 nM in assay [5], 39.8 nM in assay [2] and 100 nM in assay [3]. In addition, the results for the Selectivity Index in assay [6] and in assay [7] were 56 and 6.2, respectively.

With `CCC(=O)NCCNC(=O)CCc1cn(CCCCC2CCN(CC(=O)N3c4ccccc4NC(=O)c4ccccc43)CC2)cn1`, the inhibition constant (Ki) was 63.1 nM in assay [4]; 158 nM in assay [5]; 0.794 nM in assay [1]; 2.51 nM in assay [2]; 7.94 nM in assay [3]. Further, the Selectivity Index in assay [6] is 79; in assay [7], 230.

As for `NC1CCN(CCCCC2CCN(CC(=O)N3c4ccccc4NC(=O)c4ccccc43)CC2)CC1`, the Ki was 0.186 nM in assay [1], 2.51 nM in assay [2] and 2.57 nM in assay [3].

Turning to `N=C(N)NCCC[C@@H](N)C(=O)NCCN1CCN(CCCCC2CCN(CC(=O)N3c4ccccc4NC(=O)c4ccccc43)CC2)CC1`, the inhibition constant (Ki) is 0.229 nM in assay [1], 1.82 nM in assay [2] and 0.692 nM in assay [3].

Consider `NCCN1CCN(CCCC2CCN(CC(=O)N3c4ccccc4NC(=O)c4ccccc43)CC2)CC1`, for which the inhibitory constant (Ki) in assay [1] is 3.55 nM; in assay [2], 18.6 nM; in assay [3] it was 44.7 nM.

Consider `NCC(=O)NC1CCN(CC(=O)N2c3ccccc3NC(=O)c3ccccc32)CC1`, for which the inhibition constant Ki was 1150 nM in assay [1], 1100 nM in assay [2] and 2950 nM in assay [3].

`CCCN[C@@H](CCNC(=N)N)C(=O)N[C@@H](CCCCN)C(=O)NC(C)=O`: the inhibitory constant (Ki) in assay [1] was 4470 nM.

For `Nc1ccccc1C(=O)N1CCC(N2CCC(Cc3ccc(S(=O)(=O)c4cccc(Cl)c4)cc3)CC2)CC1`, the Ki was 91.2 nM in assay [2] and 324 nM in assay [3].

Regarding `CC(=O)N[C@@H](CCCCN)C(=O)N[C@@H](C)C(=O)N[C@@H](CCCNC(=N)N)C(=O)NCCN1CCN(CCCCC2CCN(CC(=O)N3c4ccccc4NC(=O)c4ccccc43)CC2)CC1`, the Ki in assay [4] is 100 nM; in assay [5], 398 nM; in assay [1], 0.1 nM; in assay [2], 2 nM; in assay [3], 2.51 nM. In addition, the Selectivity Index in assay [6] is 1800; in assay [7] it was 4900.

With `N=C(N)NCCC[C@H](N)C(=O)NCCN1CCN(CCCCC2CCN(CC(=O)N3c4ccccc4NC(=O)c4ccccc43)CC2)CC1`, the Ki in assay [1] was 0.102 nM; in assay [2] it was 0.794 nM; in assay [3], 1.35 nM.

On to `CCN(CC)CCCCC1CCN(CC(=O)N2c3ccccc3NC(=O)c3ccccc32)CC1`, for which, in assay [6], the Selectivity Index is 37.

For the compound `N=C(N)NCCC[C@@H](N)C(=O)NCCN1CCN(CCCC2CCN(CC(=O)N3c4ccccc4NC(=O)c4ccccc43)CC2)CC1`, the Ki is 251 nM in assay [4]; 676 nM in assay [5]; 0.589 nM in assay [1]; 3.98 nM in assay [2]; 11.7 nM in assay [3]. The Selectivity Index in assay [6] is > 160; in assay [7], 1300.

With `NCCN1CCN(CCC(=O)NC2CCN(CC(=O)N3c4ccccc4NC(=O)c4ccccc43)CC2)CC1`, the Ki was 23.4 nM in assay [1], 363 nM in assay [2] and 363 nM in assay [3].

On to `CCCN[C@@H](CCCNC(=N)N)C(=O)N[C@@H](CCCCN)C(=O)NC(C)=O`, for which the Ki in assay [1] was 6460 nM.
